Measurements as given in patent publication US8481551B2, “Gyrase and topoisomerase IV inhibitors” (Vertex Pharmaceuticals Incorporated, priority 2011, dated 2013).
Where a name gives a salt, the structure may show the parent alone. Read-outs that look alike come from different tables or passages of the source.

Tests used:
[1] = tested on: Enterococcus faecalis; test: Gyrase MIC, microdilution broth method (Protocol 1)
[2] = tested on: Enterobacter cloacae; test: Gyrase MIC against Gram negatives, microdilution broth method (Protocol 2); format: cell-based; conditions: 12 isolates tested
[3] = tested on: Bacteroides and Parabacter spp.; test: Gyrase MIC, agar dilution method (Protocol 3); format: cell-based; conditions: 26 isolates tested
[4] = tested on: Clostridium perfringens; test: microbe, parasite or virus in culture; format: cell-based
[5] = tested on: S. aureus (ATCC 29213); test: Neutropenic rat thigh infection model; format: in vivo, Sprague Dawley rats
Text: Animals: Specific-pathogen-free, male Sprague Dawley rats weighing between 76 to 100 grams were obtained from Charles River Laboratories, Inc. (Wilmington, Mass.) and utilized in this experiment. Animals were allowed to acclimate for a minimum of seven (7) days before study commencement. Bacteria: The methicillin-sensitive Staphylococcus aureus(MSSA) ATCC strain 29213 was utilized for in vivo experimentation. The test isolate was subcultured twice onto standard microbiological agar media (trypticase soy agar with 5% sheep blood). The second transfer was made less than 24 hours before use in the preparation of the thigh infection model inoculum. Neutropenic Rat Thigh Infection Model: To induce neutropenia, rats were treated with the immunosuppressant cyclophosphamide at 150 mg/kg, administered in 1 ml by intraperitoneal (IP) injection, three day prior to infection. Rats were infected by an intramuscular (IM) 0.2 ml injection into both rear thighs with a 10^7 cfu/ml methicillin-sensitive Staphylococcus aureus 29213 suspension in normal saline. After increasing amounts of time (2-26 hours) the two rear thighs of each animal were harvested, rinsed with sterile saline, weighed, then placed in 50 ml sterile normal saline and placed on wet ice until homogenization. Approximately one-half of the total homogenized sample volume was passed through a large pore filter (to remove cartilage and large clumped pieces of tissue), diluted in saline and cultured onto agar media plates (trypticase soy agar with 5% sheep blood). All culture plates were incubated at approximately 37° C. for 18-24 hours. Colony-forming units were enumerated (in cfu/ml of homogenate) and the median for each treatment and control group was calculated. […] The median cfu/ml per group was compared to the initial bacterial density at 2 hours (Early Control) or that of the time-matched vehicle control group (Late Control; LC) group harvested simultaneously. […] After 2 hours a single group of rats (Early Control (EC) was euthanized and the thighs harvested, homogenized and plated to quantitate S. aureus burdens. The additional infected rats were treated by oral gavage with Vehicle at 10 ml/kg (20% Cavitron/1% HPMCAS-MG; […] The 8-hour treatment groups received a single treatment (QD) and were euthanized and thighs collected for cfu determination 8 hours post treatment (QD), while the 24-hour treatment groups received 2 doses 12 hours apart (q12 h) and were euthanized and thighs collected 24 hours post treatment. […] After 2 hours a single group of rats (Early Control (EC)) was euthanized and the thighs harvested, homogenized and plated to quantitate S. aureus burdens. The additional infected rats were treated by oral gavage with Vehicle at 10 ml/kg (10% Vitamin E/TPGS; […] The 8-hour treatment groups received a single treatment (QD) and were euthanized and thighs collected for cfu determination 8 hours post treatment (QD), while the 24 hour treatment groups received 2 doses 12 hours apart (q12 h) and were euthanized and thighs collected 24 hours post treatment.

[6] = tested on: Nocardia caviae; test: MIC determination procedure for Mycobacterium species (Protocol 4); format: cell-based; conditions: Nocardia otitidiscaviarum
[7] = tested on: Bacteroides fragilis; test: Gyrase MIC, agar dilution method (Protocol 3); format: cell-based; conditions: 25 isolates tested
[8] = Pharmacokinetics, monkey IV study; conditions: male, cynomolgus monkey, plasma, 5 mg/kg, AUCextrap, Compound W dosed IV 5 mg/kg in D5W, label = analyte
[9] = Aqueous solubility study; format: physicochemical; conditions: 96 h
Method: The aqueous solubilities of compound 23 and compound W were determined according to the following procedure.
Preparation of Samples. Aqueous samples of each compound were prepared as follows. Compounds were weighed (20-30 mg compound) in 4 ml clear vials prior to adding water (0.5 mL) and stirring by magnetic stirrer. 1.0N HCl was added to the suspension to adjust the pH to the desired range. After stirring for 96 hours at room temperature, the suspension was filtered through a 0.22 micron filter (Millipore, Ultrafree centrifugal filters, Durapore PVDF 0.22 μm, Cat# UFC30GVNB). The filtrate was collected and the pH measured with a pH meter.
Preparation of Standard Solutions. […]
Solubility Analysis. Aliquots of each sample and each standard solution were analyzed by HPLC analysis (Agilent 1100, injection volume 10 μL, wavelength 271 nm, column XTerra® Phenyl 5 μm, 4.6×50 mm, Part No. 186001144, mobile phase: A: 0.1% TFA in water 0.1% TFA in AcN). […] Standard curves were obtained by plotting the average of the peak area from the HPLC versus the concentrations of the standard solutions (with appropriate corrections of the weights of the standards based on total water content of the solid as determined by elemental analysis). The concentration of each sample was calculated from the peak area of the aqueous sample from the HPLC results and the slope and intercept of the standard curves. […]

[10] = 8 hours after the first dose, 10 mg/kg oral
[11] = 8 hours after the first dose, 60 mg/kg oral
[12] = 8 hours after the first dose, 100 mg/kg oral
[13] = Table 9: 10 mg/kg oral, QD, 8 Hours
[14] = Table 9: 10 mg/kg oral, q12 h, 24 Hours
[15] = Table 9: 60 mg/kg oral, QD, 8 Hours
[16] = Table 9: 60 mg/kg oral, q12 h, 24 Hours
[17] = Table 9: 100 mg/kg oral, QD, 8 Hours
[18] = Table 9: 100 mg/kg oral, q12 h, 24 Hours
[19] = Table 8: 10 mg/kg oral, QD, 8 Hours
[20] = Table 8: 10 mg/kg oral, q12 h, 24 Hours
[21] = Table 8: 30 mg/kg oral, QD, 8 Hours
[22] = Table 8: 30 mg/kg oral, q12 h, 24 Hours
[23] = Table 8: 60 mg/kg oral, QD, 8 Hours
[24] = Table 8: 60 mg/kg oral, q12 h, 24 Hours

CCNC(=O)Nc1nc2cc(-c3cnc(C(C)(C)O)nc3)cc([C@H]3CCCO3)c2[nH]1 [Compound 13, methanesulfonic acid salt of 1-ethyl-3-[5-[2-(1-hydroxy-1-methyl-ethyl)pyrimidin-5-yl]-7-[(2R)-tetrahydrofuran-2-yl]-1H-benzimidazol-2-yl]urea]
MIC90 [1]: 0.25 µg/mL
MIC Range ([1]; 34 isolates tested, Protocol 1): 0.03 to 0.25 µg/mL
MIC ([1]; ATCC29212): 0.081 µg/mL
MIC90 [2]: > 8 µg/mL
MIC90 [3]: > 16 µg/mL
MIC90 [4]: 0.5 µg/mL
bacterial growth compared to early control [5, 10]: held the bacterial growth of SA 29213 to at least the point of stasis
log reduction in burdens compared to time-matched control [5, 10]: ~1.5 log
decrease of bacterial burden versus early control [5, 11]: ~0.4 logs
log reduction in burdens compared to time-matched control [5, 11]: ~1.7 log
decrease of bacterial burden versus early control [5, 12]: ~0.5 logs
log reduction in burdens compared to time-matched control [5, 12]: 1.8 log
decrease in bacterial density compared to early control ([5]; 24 hours, second dose at 12 hours, 60 and 100 mg/kg): approximately 1 log
reduction of bacterial density compared to late control ([5]; 24 hours, 10 mg/kg treatment group): ~1.1 log
cfu levels greater than the early control ([5]; 24 hours, 30 mg/kg (so in the source), did not appear effective): 0.3 logs
reduction of bacterial density compared to late control ([5]; 24 hours, 60 mg/kg): 2.85 logs
reduction of bacterial density compared to late control ([5]; 24 hours, 100 mg/kg): ~3 logs
Median Thigh Burden (Log cfu/mL) ([5]; Table 9: 10 mg/kg oral gavage, single treatment (QD), 8 Hours): 5.15 Log cfu/mL
Median Thigh Burden (Log cfu/mL) ([5]; Table 9: 10 mg/kg oral, 2 doses 12 hours apart (q12 h), 24 Hours): 6.02 Log cfu/mL
Log Difference vs. Early Control [5, 13]: −0.15
Log Difference vs. Late Control (8-hour) [5, 13]: −1.49
Log Difference vs. Early Control [5, 14]: 0.72
Log Difference vs. Late Control (24-hour) [5, 14]: −1.14
Log Difference vs. Early Control [5, 15]: −0.35
Log Difference vs. Late Control (8-hour) [5, 15]: −1.69
Median Thigh Burden (Log cfu/mL) [5, 15]: 4.95 Log cfu/mL
Log Difference vs. Early Control [5, 16]: −0.99
Log Difference vs. Late Control (24-hour) [5, 16]: −2.85
Median Thigh Burden (Log cfu/mL) [5, 16]: 4.31 Log cfu/mL
Log Difference vs. Early Control [5, 17]: −0.48
Log Difference vs. Late Control (8-hour) [5, 17]: −1.82
Median Thigh Burden (Log cfu/mL) [5, 17]: 4.82 Log cfu/mL
Log Difference vs. Early Control [5, 18]: −1.13
Log Difference vs. Late Control (24-hour) [5, 18]: −2.99
Median Thigh Burden (Log cfu/mL) [5, 18]: 4.17 Log cfu/mL
MIC ([6]; Nocardia caviae 2497, Protocol 4, read-out: MIC): 2 µg/mL
MIC90 [7]: > 16 µg/mL

CCNC(=O)Nc1nc2cc(-c3cnc(C(C)(C)O)nc3)c(F)c([C@H]3CCCO3)c2[nH]1 [Compound 23, 1-ethyl-3-[6-fluoro-5-[2-(1-hydroxy-1-methyl-ethyl)pyrimidin-5-yl]-7-[(2R)-tetrahydrofuran-2-yl]-1H-benzimidazol-2-yl]urea]
AUC [8]: 3810 ng·h/mL
Solubility [9]: <1 µg/mL

CCNC(=O)Nc1nc2cc(-c3cnc(C(C)(C)O)nc3)c(F)c([C@H]3CCCO3)c2[nH]1 [Compound 23A, methanesulfonic acid salt of 1-ethyl-3-[6-fluoro-5-[2-(1-hydroxy-1-methyl-ethyl)pyrimidin-5-yl]-7-[(2R)-tetrahydrofuran-2-yl]-1H-benzimidazol-2-yl]urea]
MIC90 [2]: > 8 µg/mL
MIC90 [3]: 16 µg/mL
MIC Range [3]: 0.12 to 16 µg/mL
MIC90 [4]: 0.5 µg/mL
MIC Range ([4]; 12 isolates tested, Protocol 3): 0.12 to 0.5 µg/mL
bacterial growth compared to early control [5, 10]: held the bacterial growth of SA 29213 to at least the point of stasis
log reduction in burdens compared to time-matched control [5, 10]: ~1.3 log
log reduction in burdens compared to time-matched control ([5]; 8 hours after the first dose, 30 and 60 mg/kg oral): ~2 log
decrease of bacterial burden compared to early control ([5]; 8 hours after the first dose, 60 and 100 mg/kg (so in the source)): 0.5-0.6 logs
log reduction compared to early control ([5]; 24 hours, second dose at 12 hours, 10 mg/kg): approximately 0.8 log
log reductions compared to early control ([5]; 24 hours, second dose at 12 hours, 30 and 60 mg/kg): 1.1-1.2 log
decrease in bacterial density compared to late control ([5]; 24 hours, second dose at 12 hours, all treatment groups (10, 30, 60 mg/kg)): 2.4-2.8 logs
Median Thigh Burden (Log cfu/mL) ([5]; Table 8: 10 mg/kg oral gavage, single treatment (QD), 8 Hours): 5.42 Log cfu/mL
Median Thigh Burden (Log cfu/mL) ([5]; Table 8: 10 mg/kg oral, 2 doses 12 hours apart (q12 h), 24 Hours): 4.59 Log cfu/mL
Log Difference vs. Early Control [5, 19]: 0.05
Log Reduction vs. Late Control (8-hour) [5, 19]: −1.36
Log Difference vs. Early Control [5, 20]: −0.78
Log Difference vs. Late Control (24-hour) [5, 20]: −2.40
Log Difference vs. Early Control [5, 21]: −0.62
Log Reduction vs. Late Control (8-hour) [5, 21]: −2.02
Median Thigh Burden (Log cfu/mL) [5, 21]: 4.75 Log cfu/mL
Log Difference vs. Early Control [5, 22]: −1.06
Log Difference vs. Late Control (24-hour) [5, 22]: −2.68
Median Thigh Burden (Log cfu/mL) [5, 22]: 4.31 Log cfu/mL
Log Difference vs. Early Control [5, 23]: −0.57
Log Reduction vs. Late Control (8-hour) [5, 23]: −1.97
Median Thigh Burden (Log cfu/mL) [5, 23]: 4.80 Log cfu/mL
Log Difference vs. Early Control [5, 24]: −1.18
Log Difference vs. Late Control (24-hour) [5, 24]: −2.80
Median Thigh Burden (Log cfu/mL) [5, 24]: 4.19 Log cfu/mL
MIC [6]: 0.125 µg/mL
MIC90 [7]: 16 µg/mL
MIC Range [7]: 1 to 16 µg/mL
